Key:
[1] = tested on: GH7 CBHs; set-up: method as in PMID 18512263; conditions: MUL as substrate of the GH7 CBHs; cited from earlier work
[2] = molecular target: CtCel6A (Chaetomium thermophilum, UniProt G0SD43); assay: Inhibition of hydrolysis of 14C-BMCC by CtCel6A; assay type: biochemical; conditions: CtCel6A, 14C-BMCC, 50°C
Source text: (§1) Here, we characterized the cellobiose and glucose inhibition of TrCel6A and its thermophilic counterpart, CtCel6A [9, 63]. First, the cellobiose inhibition of the synergistic hydrolysis of ^14C-BC by TrCel6A and TrCel5A was studied (Figure 7A). As TrCel6A was less sensitive to cellobiose inhibition than TrCel7A, the contribution of the cellobiose released during hydrolysis was not significant, and an average (DCB/DCB=0) over all time points was used in plotting (DCB/DCB=0) versus [cellobiose] (Figure 7D). No significant systematic variation of DCB/DCB=0 depending on hydrolysis time was observed. As in the case of GH7 CBHs, the IC50 value was found using Equations 5 and 6. Because the IC50 value for synergistic hydrolysis (Table 3) was of the same order as the apparent Ki value reported for TrCel5A [31], we further tested the inhibition of individual TrCel6A. BC is not a good substrate for TrCel6A, but its acid-treated derivative, BMCC, is readily degraded by the enzyme. Therefore, we prepared ^14C-BMCC by the heterogeneous acid hydrolysis of ^14C-BC. […]
(§2) GH6 CBHs were assessed by observing the hydrolysis of ^14C-BMCC. ^14C-BMCC (0.25 g l^-1) was incubated (with shaking at 350 rpm) with CBH (0.25 μM) and N188BG (0.06 μM) in 50 mM sodium acetate buffer, pH 5.0, containing BSA (0.1 g l^-1). […]

[3] = molecular target: T1, TrCel6A (Trichoderma reesei, UniProt P07987); assay: Inhibition of hydrolysis of 14C-BMCC by TrCel6A; assay type: biochemical; conditions: TrCel6A, 14C-BMCC, 50°C
T1 construct: TrCel6A was purified from the culture filtrate of Tr QM 9414 as described previously; made in house; host or cells: Trichoderma reesei QM 9414 culture filtrate (native producer)
T1 sequence (P07987 25-471): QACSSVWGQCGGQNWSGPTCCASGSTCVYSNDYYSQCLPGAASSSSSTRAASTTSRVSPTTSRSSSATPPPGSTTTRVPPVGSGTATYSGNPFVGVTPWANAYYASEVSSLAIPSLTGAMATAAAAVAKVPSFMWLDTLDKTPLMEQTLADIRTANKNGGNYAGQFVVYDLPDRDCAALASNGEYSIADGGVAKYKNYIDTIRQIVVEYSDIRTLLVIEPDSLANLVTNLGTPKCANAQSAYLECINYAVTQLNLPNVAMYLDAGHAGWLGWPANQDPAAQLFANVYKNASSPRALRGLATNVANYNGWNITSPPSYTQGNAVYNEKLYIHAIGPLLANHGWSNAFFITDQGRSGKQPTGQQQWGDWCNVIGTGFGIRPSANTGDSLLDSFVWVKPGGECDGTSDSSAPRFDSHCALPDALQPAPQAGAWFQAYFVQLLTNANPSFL
Source text: as §1, §2

[4] = molecular target: T2, TrCel5A (Trichoderma reesei, UniProt P07982); set-up: method as in PMID 23410927; conditions: cited from earlier work
T2 construct: TrCel7B, TrCel5A, and TrCel12A were purified from the culture filtrate of Tr QM 9414; made in house; host or cells: Trichoderma reesei QM 9414 culture filtrate (native producer)
T2 sequence (P07982 22-418): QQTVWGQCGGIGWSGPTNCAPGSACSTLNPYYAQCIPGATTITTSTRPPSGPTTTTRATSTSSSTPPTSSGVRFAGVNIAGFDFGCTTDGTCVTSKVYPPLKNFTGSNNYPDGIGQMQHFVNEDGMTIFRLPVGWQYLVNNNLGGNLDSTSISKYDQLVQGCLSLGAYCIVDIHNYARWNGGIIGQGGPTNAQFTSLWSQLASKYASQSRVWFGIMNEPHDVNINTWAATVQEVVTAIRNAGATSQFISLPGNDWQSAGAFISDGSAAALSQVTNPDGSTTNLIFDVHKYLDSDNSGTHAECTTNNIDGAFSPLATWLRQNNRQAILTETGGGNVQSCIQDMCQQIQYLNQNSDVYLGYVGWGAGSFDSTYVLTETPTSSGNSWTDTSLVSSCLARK

Chain of CtCel6A (G0SD43 entry or part of it): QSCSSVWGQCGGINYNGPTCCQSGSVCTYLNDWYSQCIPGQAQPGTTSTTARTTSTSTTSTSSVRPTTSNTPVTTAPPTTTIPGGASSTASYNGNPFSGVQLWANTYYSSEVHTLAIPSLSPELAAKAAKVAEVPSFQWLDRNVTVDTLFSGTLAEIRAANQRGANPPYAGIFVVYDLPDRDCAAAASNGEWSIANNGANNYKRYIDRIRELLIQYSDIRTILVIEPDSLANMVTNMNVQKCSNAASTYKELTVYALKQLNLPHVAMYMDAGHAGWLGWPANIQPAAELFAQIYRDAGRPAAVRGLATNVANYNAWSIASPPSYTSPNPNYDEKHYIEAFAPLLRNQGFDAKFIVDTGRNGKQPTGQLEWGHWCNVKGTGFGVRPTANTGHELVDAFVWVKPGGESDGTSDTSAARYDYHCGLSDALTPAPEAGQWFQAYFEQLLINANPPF

Row | Structure (SMILES) | Km [1] | times weaker inhibitor than cellobiose [2] | times weaker inhibitor than cellobiose [3] | inhibition by glucose [4]
1 | Cc1cc(=O)oc2cc(O[C@@H]3O[C@H](CO)[C@@H](O[C@@H]4O[C@H](CO)[C@H](O)[C@H](O)[C@H]4O)[C@H](O)[C@H]3O)ccc12 [MUL, 4-methylumbelliferyl-β-lactoside] | ~300 µM | – | – | –
2 | OC[C@H]1OC(O)[C@H](O)[C@@H](O)[C@@H]1O (stereo partly shown) [glucose, Glucose] | – | approximately 10 times | approximately 10 times | not significantly inhibited

From paper PMC3726336, “Product inhibition of cellulases studied with ^14C-labeled cellulose substrates” (Biotechnology for Biofuels, 2013)
